In publication PMC9734138, “Structure of the AlgKX modification and secretion complex required for alginate production and biofilm attachment in Pseudomonas aeruginosa” (Nature Communications, 2022):

How the values were obtained:
AlgKXPp = AlgKXPp (Pseudomonas putida, UniProt Q88NC7+Q88ND0); assay: NanoESI-MS ligand titration of the AlgK-AlgX mixture, Ka,kxL fitted from the ligand-bound fraction of the complex with a coupled-equilibria model, 200 mM aqueous ammonium acetate pH 7, 25 °C by the table title (21 °C in the methods).; type: binding; conditions: n = 3
Description: (§1) AlgXPp and AlgKPp stock solutions were buffer exchanged into 200 mM aqueous ammonium acetate (pH 7) using a 10 kDa cut-off Amicon 0.5 mL microconcentrators (EMD, Millipore, Billerica, MA). Stock solutions of oligosaccharides were prepared by dissolving a known amount of solid compound in Milli-Q water and stored at −20 °C until used. Nanoelectrospray (nanoESI) mass spectrometry measurements were performed on a Q Exactive Orbitrap (Orbitrap) mass spectrometer (Thermo Fisher Scientific, Bremen, Germany) and on a Q Exactive Ultra-High Mass Range Orbitrap mass spectrometer (Thermo Fisher Scientific, Bremen, Germany), both equipped with a nanoflow ESI source. NanoESI was performed by applying a voltage of ~0.8 kV to a platinum wire inserted into the nanoESI tip, which was produced from a borosilicate glass capillary (1.0 mm o.d., 0.78 mm i.d.) pulled to ~2 μm o.d. using a P − 1000 micropipette puller (Sutter Instruments, Novato, CA). The inlet capillary of the MS was heated to 120 °C, the S-lens RF level was set at 100, automatic gain control target was set at 1 × 10^6 with a maximum injection time of 200 ms. All MS data were acquired and processed using Thermo Xcalibur 4.1 software.
(§2) The Ka,kx for the interaction of AlgKPp and AlgXPp with the formation of AlgKXPp complex was obtained using the Slow Mixing Mode (SLOMO) ESI-MS assay. Briefly, ~2 µL of a solution of AlgXPp (5 µM) and AlgKPp (3–10 µM) was introduced into the nanoESI tip, followed by injection of 10 µL of solution of AlgXPp (5 µM) and AlgKPp (45 µM). The binding measurements were carried out at 21 °C; time-resolved mass spectra were averaged over 1 min intervals and the sum of the charge state-normalized abundances of the […] and AlgKXPp complex ions were calculated automatically using the SWARM software (https://github.com/pkitov/CUPRA-SWARM)[72]. The corrected (for response factors) abundances of AlgXPp and AlgKXPp species were used to calculate R/(R+1) values for AlgKPp (designated as L) and AlgXPp (designated as P) interaction and association constant Ka,kx was found using Eq. (1) (Ka,kx in this case designated as Ka in Eq. (1)).
(§3) 3b AlgXPpL⇌AlgXPp+L,Ka,xL=[AlgXPpL]/AlgXPp[L] 3c AlgKXPp⇌AlgKPp+AlgXPp,Ka,kx=[AlgKXPpL]/AlgKPp[AlgXPp] 3d AlgKXPpL⇌AlgKXPp+L,Ka,kxL=[AlgKXPL]/AlgKXPpLL
(§4) The corresponding mass balance equations are shown below:4a [L]0=[L]+[AlgKPpL]+[AlgXPpL]+[AlgKXPpL] 4b [AlgKPp]0=[AlgKPp]+[AlgKPpL]+[AlgKXPp]+[AlgKXPpL] 4c [AlgXPp]0=[AlgXPp]+[AlgXPpL]+[AlgKXPp]+[AlgKXPpL] where […], […], and [L]0 are initial concentrations of AlgKPp, AlgXPp, and oligosaccharide ligand L; Ka,kL, Ka,xL, and Ka,kx are association constant values determined as described above, and Ka,kxL is unknown parameter found by the fitting of the model to experimental data.

AlgXPp [1] = biological target: T1, AlgXPp (Pseudomonas putida, UniProt Q88ND0); assay: Direct nanoESI-MS binding assay of the single proteins with reference protein correction for nonspecific binding, 200 mM aqueous ammonium acetate pH 7, 25 °C by the table title (21 °C in the methods).; set-up: gene algX
Description: as §1
(§5) Association constants (Ka,kL and Ka,xL) for interactions of AlgKPp and AlgXPp with oligosaccharide ligands were obtained using the direct ESI-MS assay[68],[69]. The binding measurements were carried out at 21 °C, and the equilibrium mixtures were prepared by mixing aliquots of the stock solutions of proteins and ligands in aqueous ammonium acetate (200 mM). ESI-MS measurements were performed after a 1 h incubation time period. All mass spectra were corrected, when needed, for the occurrence of nonspecific carbohydrate-protein binding during the ESI process using the reference protein method. Ka,kL and Ka,xL values were determined from the abundance ratio (R) of the ligand-bound (PL) to free protein (P) ions (P can be AlgKPp or AlgXPp), after correction for nonspecific ligand binding, and the initial concentrations of protein ([P]0) and ligand ([L]0), Eq. (1):1 R/R+1=KaP0+KaL0+1−(1−KaL0+KaP0)^2+4KaL0/2KaP0 where R is taken to be equal to the corresponding equilibrium concentration ratio ([PL]/[P]) in solution, Eq. (2):2 R=∑Ab(PL)/∑Ab(P)=[PL]/[P] and Ka is Ka,kL or Ka,xL.
Target sequence in this assay (Q88ND0 whole entry): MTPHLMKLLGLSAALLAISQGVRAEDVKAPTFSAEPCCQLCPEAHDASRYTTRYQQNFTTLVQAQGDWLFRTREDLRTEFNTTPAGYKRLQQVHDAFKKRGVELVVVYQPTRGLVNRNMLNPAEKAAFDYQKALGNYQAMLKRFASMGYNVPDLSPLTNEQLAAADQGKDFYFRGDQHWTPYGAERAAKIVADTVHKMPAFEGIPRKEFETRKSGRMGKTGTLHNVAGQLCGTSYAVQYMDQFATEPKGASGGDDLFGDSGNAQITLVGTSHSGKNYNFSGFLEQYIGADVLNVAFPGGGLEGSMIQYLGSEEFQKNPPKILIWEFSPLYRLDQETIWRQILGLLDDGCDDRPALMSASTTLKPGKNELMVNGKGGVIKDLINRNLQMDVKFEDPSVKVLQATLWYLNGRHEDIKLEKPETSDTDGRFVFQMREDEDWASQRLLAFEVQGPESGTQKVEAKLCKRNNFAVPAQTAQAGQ

AlgKPp = AlgKPp (Pseudomonas putida, UniProt Q88NC7); assay: as above; set-up: gene algK
Description: as §1, §5

AlgKXPp complex = biological target: T2, AlgKXPp complex (Pseudomonas putida, UniProt Q88NC7+Q88ND0); assay: ESI-MS alginate binding assay, AlgKXPp complex (binding model fit); conditions: AlgKPp and AlgXPp 5 µM each, ligand 100 µM, ammonium acetate 200 mM pH 7.0
T2 construct: Induced cells containing either pET26b P. putida AlgK^33–484 or pET24b P. putida AlgX^∆Nterm; His6 (C); made in house; host or cells: E. coli BL21 (DE3) CodonPlus (AlgK) and E. coli Lemo21 (DE3) (AlgX)
Description: as §1, §3, §4

AlgXPp [2] = biological target: T1, AlgXPp; assay: Slow Mixing Mode (SLOMO) ESI-MS assay of AlgKPp-AlgXPp complex formation; type: binding; set-up: His6 (C); made in house; host or cells: E. coli Lemo21 (DE3); conditions: for Fraction of bound AlgX: mean, n = 3
Description: as §1, §2

[3] = read-out: Ka (M^-1) (AlgKPp), Ka (M^-1) (AlgXPp)

Chain of AlgKXPp (Q88ND0 whole entry, one chain of several): as the sequence (Q88ND0 whole entry) above

alginate hexasaccharide of alternating alpha-L-guluronate (G) and beta-D-mannuronate (M) [GMGMGM]
Ka (M^-1) (AlgKXPp) (AlgKXPp): (12 ± 0.7) × 10^2 M-1 | Ka (M^-1) (AlgKPp); Ka (M^-1) (AlgXPp) (AlgXPp [1]): (4.5 ± 1.0) × 10^2 M-1 | Ka (M^-1) (AlgKPp); Ka (M^-1) (AlgXPp) (AlgKPp): (2.5 ± 0.1) × 10^2 M-1

CCCO[C@@H]1O[C@H](C(=O)O)[C@@H](O[C@@H]2O[C@H](C(=O)O)[C@@H](O[C@@H]3O[C@H](C(=O)O)[C@@H](O[C@@H]4O[C@H](C(=O)O)[C@@H](O[C@@H]5O[C@H](C(=O)O)[C@@H](O[C@@H]6O[C@H](C(=O)O)[C@@H](O[C@@H]7O[C@H](C(=O)O)[C@@H](O)[C@H](O)[C@@H]7O)[C@H](O)[C@@H]6O)[C@H](O)[C@@H]5O)[C@H](O)[C@@H]4O)[C@H](O)[C@@H]3O)[C@H](O)[C@@H]2O)[C@H](O)[C@@H]1O [ManA7, heptamer of beta-D-mannuronic acid (1-4 linked, polyM heptasaccharide)]
Kd (AlgKXPp; read-out: Ka (M^-1) (AlgKXPp)): 1 mM | Kd (AlgXPp [1]; [3]): 3.85 mM | Kd (AlgKPp; [3]): 2.38 mM

pentadeca-hyaluronic acid [HA15, reference compound]
ligand binding to AlgKXPp detected by ESI-MS (AlgKXPp complex): No ligand binding was detected | ligand binding to AlgKXPp detected by ESI-MS (AlgKXPp complex; listed as 15-mer of hyaluronic acid): no specific binding

alginate heptasaccharide of alternating alpha-L-guluronate (G) and beta-D-mannuronate (M) [GMGMGMG]
Ka (M^-1) (AlgKXPp) (AlgKXPp): (18 ± 0.6) × 10^2 M-1 | Ka (M^-1) (AlgKPp); Ka (M^-1) (AlgXPp) (AlgXPp [1]): (2.7 ± 0.3) × 10^2 M-1

alginate hexasaccharide of alpha-L-guluronate (G) and beta-D-mannuronate (M), sequence GMGGMG
Ka (M^-1) (AlgKXPp) (AlgKXPp): (5.4 ± 0.5) × 10^2 M-1 | Ka (M^-1) (AlgKPp); Ka (M^-1) (AlgXPp) (AlgXPp [1]): (1.4 ± 0.3) × 10^2 M-1 | Ka (M^-1) (AlgKPp); Ka (M^-1) (AlgXPp) (AlgKPp): (3.0 ± 0.9) × 10^2 M-1

B1: AlgKXPp: 1:1 complex of P. putida AlgK and AlgX (protein, UniProt Q88NC7 33-484; Q88ND0 25-479, looked up)
Alginate biosynthesis protein … 1: CAGLPDQRLANEALKRGDTALAERNYKALADLGYSEAQVGLADIKVATRDPSQIKEAEATYRAAAATSPRAQARLGRLLVAKPDSTQAEREEAETLLKQAAKQGQSNTLIPLAMLYLSYPQSFPKVNAQQQIDQWRAAGNPEAGLAQVLLYRTQGTYDQHLGEVEKICKAALNTTDICYVELATVYQKRGQADQQAALLGQLKSAYARGAVPATRVDSVARVLADRSLGQTDEKTAKELLEQVAPANPASWVSLAQLVYDFPELGDTDQLMAYIDKGREAEQPRAELLLGRLYYEGKTLPADAQKAEQHLQAAAEAGEISAHYYLGQLYRRGYLGNVEPQKAVDHLLAAARGGQNSADYALAQLFSEGHGIRPQPGNAWVFAQLSQANPTPQSAELLQQLDQQLTPDQRNQAQQLLDQEKRARGSLAQGANSTLALEALQDDEKEVDGEDSL
Alginate biosynthesis protein … 2: EDVKAPTFSAEPCCQLCPEAHDASRYTTRYQQNFTTLVQAQGDWLFRTREDLRTEFNTTPAGYKRLQQVHDAFKKRGVELVVVYQPTRGLVNRNMLNPAEKAAFDYQKALGNYQAMLKRFASMGYNVPDLSPLTNEQLAAADQGKDFYFRGDQHWTPYGAERAAKIVADTVHKMPAFEGIPRKEFETRKSGRMGKTGTLHNVAGQLCGTSYAVQYMDQFATEPKGASGGDDLFGDSGNAQITLVGTSHSGKNYNFSGFLEQYIGADVLNVAFPGGGLEGSMIQYLGSEEFQKNPPKILIWEFSPLYRLDQETIWRQILGLLDDGCDDRPALMSASTTLKPGKNELMVNGKGGVIKDLINRNLQMDVKFEDPSVKVLQATLWYLNGRHEDIKLEKPETSDTDGRFVFQMREDEDWASQRLLAFEVQGPESGTQKVEAKLCKRNNFAVPAQTAQAGQ
association constant (Ka) for 1:1 AlgKXPp complex formation (AlgXPp [2]; SLOMO ESI-MS, AlgXPp 5 µM, 21 °C): 8.9 ± 0.9 × 10^4 M^−1

B2: AlgK: P. putida KT2440 AlgK residues 33–484, His-tagged TPR-containing lipoprotein (protein)
chain: CAGLPDQRLAQEALERGDLATAQSNYQALAAMGYADAQVGLADMQVASGDSAQQAKAEKLYREAAQTSPRARARLGKWLAAKPGASDAEHREAERLLSQAFEQGEDSALVPLIVLYLQYPQSWPEIDPQQRIDQWRARGLPQADLAQIILYRTQGTYAQHLGEIEQVCQRWLRRMDVCWYELATVYQMQGNAEKQKVLLEQLRAAYKAGRVPGERVDSVAGVLADGELGQPDPQTAQALLEEIAPSYPAAWVSLAKLLYDYPDQGDLEKMLGYLKNAQDAAQPRAELLLGRLYYDGKWAPQDPRKAERHLLKAAASEPQANYYLGQIYRRGFLGKVYPQKAVDHLILAARAGQASADMALAQLWSQGRGIQPNRVNAYVFGQLAVQQQVPQASDLLGQIEAQLPPAERSQAQQLLKREQQSRGNNWQATVSLLQSQDSPINEEEPESL
Fraction of bound AlgX (AlgXPp [2]; concentration of AlgK 3 µM): 0.22 | Fraction of bound AlgX (AlgXPp [2]; concentration of AlgK 5 µM): 0.24 | Fraction of bound AlgX (AlgXPp [2]; concentration of AlgK 7.5 µM): 0.31 | Fraction of bound AlgX (AlgXPp [2]; concentration of AlgK 10 µM): 0.42
